According to US11053218B2, “3-(1-oxoisoindolin-2-yl)piperidine-2,6-dione derivatives and uses thereof” (Novartis AG, priority 2017, dated 2021):
Like-named read-outs stand apart in the source and are kept apart here.

Experiments:
Format in all cases: cell-based
IKZF2 = IKZF2 (Homo sapiens, UniProt Q96SW2+Q9UKS7); test: Prolabel quantification of IKZF2 protein levels in 293GT cells
GSPT1 = GSPT1 (Homo sapiens, UniProt P15170+Q96SW2); test: Prolabel quantification of GSPT1 protein levels in 293GT cells; conditions: Prolabel assay, read-out: GSPT1 EC50
Sequence of GSPT1 (P15170 whole entry, the tested form may be a part): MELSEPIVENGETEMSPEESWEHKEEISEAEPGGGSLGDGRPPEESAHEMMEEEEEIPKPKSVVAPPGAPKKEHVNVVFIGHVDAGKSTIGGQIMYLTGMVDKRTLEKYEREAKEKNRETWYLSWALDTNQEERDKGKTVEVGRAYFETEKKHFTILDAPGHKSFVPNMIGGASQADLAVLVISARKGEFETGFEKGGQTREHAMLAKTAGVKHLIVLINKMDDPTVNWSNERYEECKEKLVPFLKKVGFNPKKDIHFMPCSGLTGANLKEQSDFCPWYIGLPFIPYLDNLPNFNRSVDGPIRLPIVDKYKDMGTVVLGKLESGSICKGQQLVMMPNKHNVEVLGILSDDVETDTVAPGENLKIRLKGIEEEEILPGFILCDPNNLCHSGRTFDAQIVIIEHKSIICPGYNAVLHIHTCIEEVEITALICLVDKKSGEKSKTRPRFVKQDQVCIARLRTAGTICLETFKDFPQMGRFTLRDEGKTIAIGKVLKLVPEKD
Sequence of GSPT1 (Q96SW2 whole entry, the tested form may be a part): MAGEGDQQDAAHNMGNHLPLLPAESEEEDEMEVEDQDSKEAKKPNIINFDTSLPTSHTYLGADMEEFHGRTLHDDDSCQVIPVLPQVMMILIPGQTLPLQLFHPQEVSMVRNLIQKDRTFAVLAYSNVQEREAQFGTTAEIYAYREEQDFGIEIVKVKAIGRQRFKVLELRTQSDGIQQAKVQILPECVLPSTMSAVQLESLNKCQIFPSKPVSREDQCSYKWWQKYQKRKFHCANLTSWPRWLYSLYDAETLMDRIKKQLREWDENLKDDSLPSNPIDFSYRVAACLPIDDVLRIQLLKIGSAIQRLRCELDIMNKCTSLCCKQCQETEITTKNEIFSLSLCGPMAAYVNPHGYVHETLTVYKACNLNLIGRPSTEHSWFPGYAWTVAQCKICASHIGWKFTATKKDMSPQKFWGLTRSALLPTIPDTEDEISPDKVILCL
Sequence of GSPT1 (Q16531 whole entry partner, the tested form may be a part): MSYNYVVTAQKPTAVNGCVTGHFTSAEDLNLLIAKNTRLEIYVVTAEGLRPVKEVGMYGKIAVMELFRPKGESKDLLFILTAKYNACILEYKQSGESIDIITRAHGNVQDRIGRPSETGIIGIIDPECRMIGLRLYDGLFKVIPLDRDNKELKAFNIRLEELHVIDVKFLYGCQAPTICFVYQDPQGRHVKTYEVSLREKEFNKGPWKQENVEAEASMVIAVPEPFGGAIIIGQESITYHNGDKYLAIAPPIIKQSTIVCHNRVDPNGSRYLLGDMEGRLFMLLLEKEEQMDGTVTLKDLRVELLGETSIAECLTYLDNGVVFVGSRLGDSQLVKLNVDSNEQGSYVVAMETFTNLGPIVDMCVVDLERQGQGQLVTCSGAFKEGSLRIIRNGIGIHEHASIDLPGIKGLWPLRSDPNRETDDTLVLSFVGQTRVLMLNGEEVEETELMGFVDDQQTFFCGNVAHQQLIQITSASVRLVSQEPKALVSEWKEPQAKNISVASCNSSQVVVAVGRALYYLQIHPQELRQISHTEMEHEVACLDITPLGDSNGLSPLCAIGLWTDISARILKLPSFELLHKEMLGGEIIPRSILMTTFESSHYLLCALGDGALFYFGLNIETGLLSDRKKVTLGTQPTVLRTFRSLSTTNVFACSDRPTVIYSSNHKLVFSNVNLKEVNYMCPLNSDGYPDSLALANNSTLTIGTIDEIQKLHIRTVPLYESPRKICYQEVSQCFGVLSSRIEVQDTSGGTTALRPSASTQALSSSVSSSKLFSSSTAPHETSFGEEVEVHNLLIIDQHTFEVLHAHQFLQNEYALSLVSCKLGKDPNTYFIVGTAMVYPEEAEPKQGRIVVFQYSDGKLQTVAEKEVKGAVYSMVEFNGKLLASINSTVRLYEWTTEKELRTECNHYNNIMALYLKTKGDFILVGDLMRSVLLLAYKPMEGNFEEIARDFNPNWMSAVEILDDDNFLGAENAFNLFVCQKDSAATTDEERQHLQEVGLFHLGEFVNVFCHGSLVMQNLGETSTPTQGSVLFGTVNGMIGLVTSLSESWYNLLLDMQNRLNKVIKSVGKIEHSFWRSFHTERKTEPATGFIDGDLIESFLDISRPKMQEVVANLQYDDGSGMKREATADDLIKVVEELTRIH
Description: The Prolabel system from DiscoverX was used to develop high-throughput and quantitative assays to measure changes in IKZF1, IKZF2 and GSPT1 protein levels in response to compounds. The prolabel tag was derived from the alpha fragment of beta galactosidase and has the following protein sequence: mssnslavvlqrrdwenpgvtqlnrlaahppfaswrnseeartdrpsqqlrslnge. The complementary fragment of beta-galactosidase (from DiscoverX), is added to the prolabel tag to form an active beta galactosidase enzyme whose activity can be precisely measured. In this way, the levels of a fusion protein with the prolabel tag can be quantified in cell lysates.
Lentiviral vectors, based on the Invitrogen pLenti6.2/V5 DEST backbone, were constructed that placed the prolabel tag upstream of IKZF1, IKZF2 or GSPT1 and expressed the fusion protein from a CMV promoter.
To ensure moderate and consistent expression of the prolabel fusion proteins across all cells in the population, stable cell lines were constructed from cells expressing a single copy of the construct. Lentivirus packaged with the constructs was made using the Virapower kit from Invitrogen.
The levels of prolabel tagged fusion proteins in compound treated cell lines were measured as follows:
Day 1, Cells were diluted to 1.0×10^6 cells/ml in normal growth medium. 17.5 μL of cells were plated in each well of a solid white 384 well plate. Plates were incubated overnight in a 37° C. tissue culture incubator.
Day 2, Serial dilutions of compounds were made in 384 well plates from 10 mM stocks. 15 μL of DMSO was added to each well of a 384 well plate. In the first column 15 μL of stock compound was added. The solution was mixed and 15 μL was transferred to the next column. This was repeated until 20 two-fold dilutions were prepared. 2.5 μL of diluted compounds were transferred into 60 μL of cell culture medium in another 384 well plate, and mixed well. 2.5 μL of this mixture was added to the plated cells. The final DMSO concentration was 0.5% and the highest concentration of compound was 50 μM. Plates were incubated overnight (e.g., about 14 h, 18 h, or 24 h) in a 37° C. tissue culture incubator.
Day 3, Plates were removed from the incubator and allowed to equilibrate at rt for 30 minutes. Prolabel substrate (DiscoverX PathHunter Prolabel Detection Kit, User manual: 93-0180) was added as described by the manufacturers protocols. Plates were incubated at rt for three hours and luminescence was read using an Envision reader (Perkin Elmer) Data was analyzed and visualized using the Spotfire software package.

IKZF1 = IKZF1 (Homo sapiens, UniProt Q13422+Q96SW2); test: Prolabel quantification of IKZF1 protein levels in 293GT cells; conditions: Prolabel assay, read-out: IKZF1 EC50
Sequence of IKZF1 (Q13422 whole entry): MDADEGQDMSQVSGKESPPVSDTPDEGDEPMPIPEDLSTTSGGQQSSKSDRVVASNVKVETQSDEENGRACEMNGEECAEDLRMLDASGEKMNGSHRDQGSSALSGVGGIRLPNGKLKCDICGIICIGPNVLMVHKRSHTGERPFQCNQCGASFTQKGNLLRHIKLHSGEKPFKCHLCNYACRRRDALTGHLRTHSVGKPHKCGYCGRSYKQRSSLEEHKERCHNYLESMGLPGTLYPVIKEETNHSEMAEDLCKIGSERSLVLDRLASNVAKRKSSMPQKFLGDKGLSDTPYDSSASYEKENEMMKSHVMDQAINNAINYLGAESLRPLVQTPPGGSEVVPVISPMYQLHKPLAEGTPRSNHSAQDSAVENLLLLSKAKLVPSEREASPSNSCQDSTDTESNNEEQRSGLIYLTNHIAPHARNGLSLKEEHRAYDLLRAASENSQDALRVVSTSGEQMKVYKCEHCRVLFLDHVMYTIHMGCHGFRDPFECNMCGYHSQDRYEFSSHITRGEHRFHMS
Sequence of IKZF1 (Q96SW2 whole entry): as the sequence (Q96SW2 whole entry, the tested form may be a part) above
Sequence of IKZF1 (Q16531 whole entry partner): as the sequence (Q16531 whole entry partner, the tested form may be a part) above

[1] = 24 h, 10 μM, 24 h, 293GT cells; read-out: IKZF2 % protein reduction at 10 μM, 24 h
[2] = Prolabel assay, 293GT cells; read-out: IKZF2 EC50
[3] = 10 μM, 24 h, 293GT cells; read-out: IKZF2 % protein reduction at 10 μM, 24 h
[4] = Prolabel assay in HEK293GT cells, bar graph

Sequence of IKZF2 (Q9UKS7 whole entry): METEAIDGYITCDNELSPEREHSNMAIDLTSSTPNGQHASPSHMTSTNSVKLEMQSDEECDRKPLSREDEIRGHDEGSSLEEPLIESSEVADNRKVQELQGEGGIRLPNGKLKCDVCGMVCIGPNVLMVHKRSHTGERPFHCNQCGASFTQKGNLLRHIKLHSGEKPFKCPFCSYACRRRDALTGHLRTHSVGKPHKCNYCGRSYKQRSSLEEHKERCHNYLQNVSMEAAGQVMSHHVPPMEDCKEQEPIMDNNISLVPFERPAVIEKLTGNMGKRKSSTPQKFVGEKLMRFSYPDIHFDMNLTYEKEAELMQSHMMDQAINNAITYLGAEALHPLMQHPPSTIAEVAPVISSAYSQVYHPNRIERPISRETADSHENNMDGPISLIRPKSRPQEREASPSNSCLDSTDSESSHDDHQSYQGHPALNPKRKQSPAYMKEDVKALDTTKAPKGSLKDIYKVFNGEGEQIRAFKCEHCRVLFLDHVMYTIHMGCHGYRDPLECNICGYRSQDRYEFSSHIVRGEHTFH
Sequence of IKZF2 (Q96SW2 whole entry): as the sequence (Q96SW2 whole entry, the tested form may be a part) above
Sequence of IKZF2 (Q16531 whole entry partner): as the sequence (Q16531 whole entry partner, the tested form may be a part) above

| inhibition at 10 µM (IKZF2; [1]) | DC50 (IKZF2; [2]) | DC50 (GSPT1) | DC50 (IKZF1) | IKZF2 protein levels as compared to the control (DMSO) (IKZF2; [4]) | SMILES | inhibition at 10 µM (IKZF2; [3]) |
| --- | --- | --- | --- | --- | --- | --- |
| 75% | 0.007 µM | > 30 µM | > 50 µM | – | CC(c1ccccc1)N1CCC(c2ccc3c(c2)CN(C2CCC(=O)NC2=O)C3=O)CC1 (racemic) [Compound I-62, 3-(1-oxo-5-(1-(1-phenylethyl)piperidin-4-yl)isoindolin-2-yl)piperidine-2,6-dione] | – |
| 25% | – | > 50 µM | > 50 µM | – | O=C1CCC(N2Cc3cc([C@@H]4CCCNCC4)ccc3C2=O)C(=O)N1 (single isomer, unassigned) [Compound I-166, 3-(5-(azepan-4-yl)-1-oxoisoindolin-2-yl)piperidine-2,6-dione] | – |
| 25% | – | > 50 µM | > 50 µM | – | O=C1CCC(N2Cc3cc(C4CCCNCC4)ccc3C2=O)C(=O)N1 (single isomer, unassigned) [Compound I-167, 3-(5-(azepan-4-yl)-1-oxoisoindolin-2-yl)piperidine-2,6-dione] | – |
| 65% | 0.013 µM | > 50 µM | > 50 µM | – | O=C1CCC(N2Cc3cc(C4CCN(CC5CCCCC5)CC4)ccc3C2=O)C(=O)N1 (stereo not shown) [Compound I-11, 3-(5-(1-(cyclohexylmethyl)piperidin-4-yl)-1-oxoisoindolin-2-yl)piperidine-2,6-dione] | – |
| 75% | 0.017 µM | > 30 µM | > 30 µM | – | N#Cc1cccc(CN2CCC(c3ccc4c(c3)CN(C3CCC(=O)NC3=O)C4=O)CC2)c1 (stereo not shown) [Compound I-36, 3-((4-(2-(2,6-dioxopiperidin-3-yl)-1-oxoisoindolin-5-yl)piperidin-1-yl)methyl)benzonitrile] | – |
| 80% | 0.012 µM | > 30 µM | > 30 µM | decreased | O=C1CCC(N2Cc3cc(C4CCN(Cc5cccc6[nH]ncc56)CC4)ccc3C2=O)C(=O)N1 (stereo not shown) [Compound I-43, 3-(5-(1-((1H-indazol-4-yl)methyl)piperidin-4-yl)-1-oxoisoindolin-2-yl)piperidine-2,6-dione] | – |
| 80% | 0.031 µM | > 30 µM | > 30 µM | – | O=C1CCC(N2Cc3cc(C4CCN(Cc5cccnc5)CC4)ccc3C2=O)C(=O)N1 (stereo not shown) [Compound I-59, 3-(1-oxo-5-(1-(pyridin-3-ylmethyl)piperidin-4-yl)isoindolin-2-yl)piperidine-2,6-dione] | – |
| 75% | 0.025 µM | > 30 µM | > 30 µM | – | O=C1CCC(N2Cc3cc(C4CCN(Cc5ccc(F)c(F)c5)CC4)ccc3C2=O)C(=O)N1 (stereo not shown) [Compound I-64, 3-(5-(1-(3,4-difluorobenzyl)piperidin-4-yl)-1-oxoisoindolin-2-yl)piperidine-2,6-dione] | – |
| 50% | 0.003 µM | > 30 µM | > 50 µM | decreased | COc1ncc(CN2CCC(c3ccc4c(c3)CN(C3CCC(=O)NC3=O)C4=O)CC2)cn1 (stereo not shown) [Compound I-68, 3-(5-(1-((2-methoxypyrimidin-5-yl)methyl)piperidin-4-yl)-1-oxoisoindolin-2-yl)piperidine-2,6-dione] | – |
| 75% | 0.012 µM | > 30 µM | > 30 µM | – | O=C1CCC(N2Cc3cc(C4CCN(Cc5ccc(C(F)F)cc5)CC4)ccc3C2=O)C(=O)N1 (stereo not shown) [Compound I-70, 3-(5-(1-(4-(difluoromethyl)benzyl)piperidin-4-yl)-1-oxoisoindolin-2-yl)piperidine-2,6-dione] | – |
| 80% | 0.027 µM | > 30 µM | > 30 µM | – | NC(=O)c1ccc(CN2CCC(c3ccc4c(c3)CN(C3CCC(=O)NC3=O)C4=O)CC2)cc1 (stereo not shown) [Compound I-71, 4-((4-(2-(2,6-dioxopiperidin-3-yl)-1-oxoisoindolin-5-yl)piperidin-1-yl)methyl)benzamide] | – |
| 80% | 0.007 µM | > 30 µM | > 30 µM | – | O=C1CCC(N2Cc3cc(C4CCN(Cc5ccc(OC(F)F)cc5)CC4)ccc3C2=O)C(=O)N1 (stereo not shown) [Compound I-77, 3-(5-(1-(4-(difluoromethoxy)benzyl)piperidin-4-yl)-1-oxoisoindolin-2-yl)piperidine-2,6-dione] | – |
| 75% | 0.029 µM | > 30 µM | > 30 µM | – | CC(=O)Nc1ccc(CN2CCC(c3ccc4c(c3)CN(C3CCC(=O)NC3=O)C4=O)CC2)cc1 (stereo not shown) [Compound I-86, N-(4-((4-(2-(2,6-dioxopiperidin-3-yl)-1-oxoisoindolin-5-yl)piperidin-1-yl)methyl)phenyl)acetamide] | – |
| 70% | 0.005 µM | > 30 µM | > 30 µM | – | O=C1CCC(N2Cc3cc(C4CCN(Cc5ccc6c(c5)OCCCO6)CC4)ccc3C2=O)C(=O)N1 (stereo not shown) [Compound I-88, 3-(5-(1-((3,4-dihydro-2H-benzo[b][1,4]dioxepin-7-yl)methyl)piperidin-4-yl)-1-oxoisoindolin-2-yl)piperidine-2,6-dione] | – |
| 70% | 0.033 µM | > 30 µM | > 30 µM | – | CCC(C)(C)c1ccc(CN2CCC(c3ccc4c(c3)CN(C3CCC(=O)NC3=O)C4=O)CC2)cc1 (stereo not shown) [Compound I-89, 3-(1-oxo-5-(1-(4-(tert-pentyl)benzyl)piperidin-4-yl)isoindolin-2-yl)piperidine-2,6-dione] | – |
| 75% | 0.018 µM | > 30 µM | > 30 µM | – | O=C1CCC(N2Cc3cc(C4CCN(Cc5ccc(-n6cccn6)cc5)CC4)ccc3C2=O)C(=O)N1 (stereo not shown) [Compound I-91, 3-(5-(1-(4-(1H-pyrazol-1-yl)benzyl)piperidin-4-yl)-1-oxoisoindolin-2-yl)piperidine-2,6-dione] | – |
| 55% | 0.027 µM | > 50 µM | > 50 µM | – | O=C1CCC(N2Cc3cc(C4CCN(Cc5ccc(Cl)cc5)CC4)ccc3C2=O)C(=O)N1 (stereo not shown) [Compound I-97, 3-(5-(1-(4-chlorobenzyl)piperidin-4-yl)-1-oxoisoindolin-2-yl)piperidine-2,6-dione] | – |
| 80% | 0.023 µM | > 30 µM | 0.14 µM | – | CC(C)(C)c1cccc(CN2CCC(c3ccc4c(c3)CN(C3CCC(=O)NC3=O)C4=O)CC2)c1 (stereo not shown) [Compound I-107, 3-(5-(1-(3-(tert-butyl)benzyl)piperidin-4-yl)-1-oxoisoindolin-2-yl)piperidine-2,6-dione] | – |
| 65% | 0.023 µM | > 30 µM | > 30 µM | – | CC(C)Oc1cccc(CN2CCC(c3ccc4c(c3)CN(C3CCC(=O)NC3=O)C4=O)CC2)c1 (stereo not shown) [Compound I-108, 3-(5-(1-(3-isopropoxybenzyl)piperidin-4-yl)-1-oxoisoindolin-2-yl)piperidine-2,6-dione] | – |
| 75% | 0.074 µM | > 30 µM | > 30 µM | – | O=C1CCC(N2Cc3cc(C4CCN(Cc5ccc(C6CCCC6)cc5)CC4)ccc3C2=O)C(=O)N1 (stereo not shown) [Compound I-110, 3-(5-(1-(4-cyclopentylbenzyl)piperidin-4-yl)-1-oxoisoindolin-2-yl)piperidine-2,6-dione] | – |

| SMILES | inhibition at 10 µM (IKZF2; [1]) | DC50 (IKZF2; [2]) | DC50 (GSPT1) | DC50 (IKZF1) | IKZF2 protein levels as compared to the control (DMSO) (IKZF2; [4]) | inhibition at 10 µM (IKZF2; [3]) |
| --- | --- | --- | --- | --- | --- | --- |
| N#Cc1ccc(CN2CCC(c3ccc4c(c3)CN(C3CCC(=O)NC3=O)C4=O)CC2)cc1 (stereo not shown) [Compound I-31, 3-(5-(1-(4-nitrilebenzyl)piperidin-4-yl)-1-oxoisoindolin-2-yl)piperidine-2,6-dione] | – | 0.004 µM | > 50 µM | > 50 µM | – | 60% |
| COc1ccc(CN2CCC(c3ccc4c(c3)CN(C3CCC(=O)NC3=O)C4=O)CC2)cc1 (stereo not shown) [Compound I-39, 3-(5-(1-(4-methoxybenzyl)piperidin-4-yl)-1-oxoisoindolin-2-yl)piperidine-2,6-dione] | – | – | > 50 µM | > 50 µM | – | 45% |
| O=C1CCC(N2Cc3cc(C4CCN(Cc5ccc(-c6ccccc6)cc5)CC4)ccc3C2=O)C(=O)N1 (stereo not shown) [Compound I-90, 3-(5-(1-([1,1′-biphenyl]-4-ylmethyl)piperidin-4-yl)-1-oxoisoindolin-2-yl)piperidine-2,6-dione] | – | 0.007 µM | > 50 µM | > 50 µM | – | 65% |
